Assays:
[1] = target: T1, human alpha 7-wt nAChR-expressing GH4C1 cells (Homo sapiens, UniProt P36544); assay: Patch-clamp current recording (whole-cell voltage-clamp, PAM type classification); type: cell-based; design: key: Type 0 compounds minimally change the effect size of the current elicited by 1 mM choline.; Type 1 compounds enhance the effect size of the current elicited by 1 mM choline but minimally alter the kinetics of the receptor.; Type 2 compounds enhance the effect size of the current elicited by 1 mM choline while reducing the rate and/or the extent of desensitization.; Type 3 compounds enhance the effect size of the current elicited by 1 mM choline. When tested at higher concentrations up to 10 μM they completely inhibit desensitization; Type 4 compounds allow for an initial desensitization of the receptor followed by a re-opening of the receptor during agonist application; conditions: 1 mM choline
T1 construct: expressed in transfected cells
T1 sequence (P36544 23-502): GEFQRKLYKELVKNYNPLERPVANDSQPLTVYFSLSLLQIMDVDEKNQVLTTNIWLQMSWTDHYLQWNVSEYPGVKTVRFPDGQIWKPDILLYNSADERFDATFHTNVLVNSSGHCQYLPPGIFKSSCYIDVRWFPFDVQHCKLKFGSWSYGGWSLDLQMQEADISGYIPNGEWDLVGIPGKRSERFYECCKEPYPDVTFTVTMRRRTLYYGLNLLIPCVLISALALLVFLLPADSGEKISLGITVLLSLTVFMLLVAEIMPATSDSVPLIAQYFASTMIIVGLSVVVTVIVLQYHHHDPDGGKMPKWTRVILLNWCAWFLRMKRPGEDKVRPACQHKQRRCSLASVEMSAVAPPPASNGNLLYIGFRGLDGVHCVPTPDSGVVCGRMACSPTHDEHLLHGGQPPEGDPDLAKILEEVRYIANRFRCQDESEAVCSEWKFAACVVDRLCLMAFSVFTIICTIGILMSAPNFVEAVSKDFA
Procedure: The compounds of the present invention are classified as type 1-4, based on qualitative kinetic properties, as determined by whole-cell voltage-clamp recordings. This classification is based on the effect of an alpha 7 PAM compound, as described hereinbefore, on the signal elicited by an agonist application. In particular, said agonist is choline at a concentration of 1 mM. In a preferred experimental setting, said alpha 7 PAM compound and choline are simultaneously applied to the cell, as described hereinafter. Desensitization is defined as the closure of the receptor upon activation during the application of the agonist in whole-cell voltage-clamp electrophysiology measurements seen as the reduction of the […] current after initial activation by the agonist.
The definition of the PAM types 1-4 is described hereinafter: • Type 0 compounds minimally change the effect size of the current elicited by 1 mM choline. • Type 1 compounds enhance the effect size of the current elicited by 1 mM choline but minimally alter the kinetics of the receptor. In particular, the rate and the extent of desensitization and of deactivation of the receptor elicited by the agonist is not affected. The compound-modulated response to 1 mM choline, therefore, is close to a linear scaling of the 1 mM choline response in absence of the alpha 7 PAM compound. • Type 2 compounds enhance the effect size of the current elicited by 1 mM choline while reducing the rate and/or the extent of desensitization. Deactivation of the receptor is generally unaffected. • Type 3 compounds enhance the effect size of the current elicited by 1 mM choline. […] Deactivation of the receptor may be slowed down • Type 4 compounds allow for an initial desensitization of the receptor followed by a re-opening of the receptor during agonist application. At low-potency concentrations of the alpha 7 PAM compound, the agonist-induced activation, which is followed by desensitization, can still be separated from the compound-induced re-opening as an initial inward current-maximum. At higher potency concentrations of the alpha 7 PAM compound, the re-opening occurs faster than the closure due to desensitization so that the initial current-maximum disappears.
A compound was considered to have interesting PAM-like activity when the potentiation of the peak current was at least 200% compared to the control choline response (=100%). Such compounds are classified as belonging to a particular PAM type in the Experimental Part. Compounds not meeting the condition are not classified as belonging to a particular PAM-type.
The compounds also have a potentiating effect on the response to choline when measured by whole-cell patch clamp electrophysiology in GH4C1 cells stably over-expressing the human wild-type alpha 7 receptor.
Patch-clamp recording from mammalian cells has provided a powerful means of assessing the function of membrane-bound proteins thought to be subunits of ligand-gated ion channels. Activation of such proteins by endogenous or exogenous ligands cause opening of a pore associated with the receptor through which ions flow down their electrochemical gradient. In the case of the human alpha 7-wt nAChR-expressing GH4C1 recombinant cell line the preferential permeability to calcium of this receptor means that calcium flows into the cell upon activation by ACh, choline and other nicotinic ligands giving rise to a calcium current. Since this receptor rapidly desensitizes in the presence of agonist it is important that an application system is used which is capable of very rapid switching of solutions (<100 ms) to prevent partial or full desensitisation of receptor responses coincident with the time of agonist application. Consequently, a second convenient technique to assess the enhancement of nicotinic efficacy is a patch-clamp recording from human alpha 7-wt nAChR-expressing GH4C1 cells coupled with a rapid-application system. […]

human alpha 7-wt nAChR = target: T2, human alpha 7-wt nAChR (Homo sapiens, UniProt P36544); assay: Ca2+ flux imaging (FDSS) (Protocol B); type: cell-based; conditions: for Emax: read-out: a7-PAM-G_[33]_Eff_Curve_FI % Efficacy; for EC50: potentiation of 100 μM choline, compounds 0.01 μM to 30 μM, read-out: a7-PAM-G_[33]_pEC50 pEC50 (converted)
T2 construct: expressed in transfected cells
T2 sequence (P36544 23-502): as above
In short: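 PAM activity was measured as FDSS calcium fluorescence in α7-wt nAChR cells loaded with 2 μM Fluo-4AM, with compounds at 0.01–30 μM added alongside or 10 min ahead of sub-maximal 100 μM choline. Peak responses were normalised to choline-only efficacy, and EC50 was taken at half-maximal effect.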

[2] = efficacy of 100 μM choline defined as 100% in the absence of a PAM

In the case of Cc1cc(-c2sc(N3CCOC(C)C3)nc2CNC(=O)C(C)C)cc(C)n1 (single isomer, unassigned) [Compound 76, N-[[5-(2,6-dimethyl-4-pyridinyl)-2-[(2R*)-2-methyl-4-morpholinyl]-4-thiazolyl]methyl]-2-methyl-propanamide], the “PAM_Type PAM type” value [1] is reported as 2, the melting point is reported as 189 °C and the Emax (human alpha 7-wt nAChR; [2]) is reported as 611%. For the same molecule, the EC50 (human alpha 7-wt nAChR) was 0.55 µM.
In the case of Cc1cc(-c2sc(N3CCOC(C)C3)nc2CNC(=O)CC2CC2)cc(C)n1 (single isomer, unassigned) [Compound 78, N-[[5-(2,6-dimethyl-4-pyridinyl)-2-[(2S*)-2-methyl-4-morpholinyl]-4-thiazolyl]methyl]-cyclopropaneacetamide], the “PAM_Type PAM type” value [1] is reported as 2, the melting point is reported as 169 °C and the “a7-PAM-G_[33]_Eff_Curve_FI % Efficacy” value (human alpha 7-wt nAChR; [2]) is reported as 919%. It also gave an EC50 (human alpha 7-wt nAChR) of 1.17 µM.
For Cc1cc(-c2sc(N3C[C@@H](C)O[C@@H](C)C3)nc2CNC(=O)c2cc(C)on2)cc(C)n1 [Compound 3, N-[[2-[(2R,6S)-2,6-dimethyl-4-morpholinyl]-5-(2,6-dimethyl-4-pyridinyl)-4-thiazolyl]methyl]-5-methyl-3-isoxazolecarboxamide], the “PAM_Type PAM type” value [1] was 1, the melting point was 208 °C and the EC50 (human alpha 7-wt nAChR) was 0.813 µM.
With Cc1cc(C(=O)NCc2nc(N3C[C@@H](C)O[C@@H](C)C3)sc2-c2cc(C)nc(C)c2)on1 [Compound 4, N-[[2-[(2R,6S)-2,6-dimethyl-4-morpholinyl]-5-(2,6-dimethyl-4-pyridinyl)-4-thiazolyl]methyl]-3-methyl-5-isoxazolecarboxamide] the “PAM_Type PAM type” value [1] was 2, the melting point was 184 °C and the Emax (human alpha 7-wt nAChR; [2]) was 927%. The EC50 (human alpha 7-wt nAChR) was 1.41 µM.
In the case of CCC(=O)NCc1nc(N2C[C@@H](C)O[C@@H](C)C2)sc1-c1cc(C)nc(C)c1 [Compound 39, N-[[2-[(2R,6S)-2,6-dimethyl-4-morpholinyl]-5-(2,6-dimethyl-4-pyridinyl)-4-thiazolyl]methyl]-propanamide], the “PAM_Type PAM type” value [1] is reported as 2, the melting point is reported as 176 °C and the Emax (human alpha 7-wt nAChR; [2]) is reported as 498%. The EC50 (human alpha 7-wt nAChR) was 0.871 µM.
With COc1cc(-c2sc(N3C[C@@H](C)O[C@@H](C)C3)nc2CNC(=O)c2cc(C)on2)cc(C)n1 [Compound 82, N-[[2-[(2R,6S)-2,6-dimethyl-4-morpholinyl]-5-(2-methoxy-6-methyl-4-pyridinyl)-4-thiazolyl]methyl]-5-methyl-3-isoxazolecarboxamide] the “PAM_Type PAM type” value [1] was 1, the melting point was 203 °C and the Emax (human alpha 7-wt nAChR; [2]) was 459%. The EC50 (human alpha 7-wt nAChR) was 0.324 µM.
For COc1cc(-c2sc(N3C[C@@H](C)O[C@@H](C)C3)nc2CNC(=O)CC2CC2)cc(C)n1 [Compound 83, N-[[2-[(2R,6S)-2,6-dimethyl-4-morpholinyl]-5-(2-methoxy-6-methyl-4-pyridinyl)-4-thiazolyl]methyl]-cyclopropaneacetamide], the “PAM_Type PAM type” value [1] was 2, the melting point was 171 °C and the Emax (human alpha 7-wt nAChR; [2]) was 584%. For the same molecule, the EC50 (human alpha 7-wt nAChR) was 0.145 µM.
With COc1cc(-c2sc(N3C[C@@H](C)O[C@@H](C)C3)nc2CNC(=O)C2CCC2)cc(C)n1 [Compound 84, N-[[2-[(2R,6S)-2,6-dimethyl-4-morpholinyl]-5-(2-methoxy-6-methyl-4-pyridinyl)-4-thiazolyl]methyl]-cyclobutanecarboxamide] the “PAM_Type PAM type” value [1] was 2, the melting point was 171 °C and the Emax (human alpha 7-wt nAChR; [2]) was 443%. For the same molecule, the EC50 (human alpha 7-wt nAChR) was 0.102 µM.
For COc1cc(-c2sc(N3C[C@@H](C)O[C@@H](C)C3)nc2CNC(=O)c2cccc(F)c2)cc(C)n1 [Compound 85, N-[[2-[(2R,6S)-2,6-dimethyl-4-morpholinyl]-5-(2-methoxy-6-methyl-4-pyridinyl)-4-thiazolyl]methyl]-3-fluoro-benzamide], the “PAM_Type PAM type” value [1] was 0, the melting point was 172 °C and the Emax (human alpha 7-wt nAChR; [2]) was 320%. The EC50 (human alpha 7-wt nAChR) was 0.708 µM.
For Cc1cc(-c2sc(N3C[C@@H](C)O[C@@H](C)C3)nc2CNC(=O)c2cc(C)on2)ccn1 [Compound 87, N-[[2-[(2R,6S)-2,6-dimethyl-4-morpholinyl]-5-(2-methyl-4-pyridinyl)-4-thiazolyl]methyl]-5-methyl-3-isoxazolecarboxamide], the “PAM_Type PAM type” value [1] was 2, the melting point was 177 °C and the Emax (human alpha 7-wt nAChR; [2]) was 646%. The EC50 (human alpha 7-wt nAChR) was 0.813 µM.
In the case of Cc1cc(-c2sc(N3C[C@@H](C)O[C@@H](C)C3)nc2CNC(=O)CC2CC2)ccn1 [Compound 88, N-[[2-[(2R,6S)-2,6-dimethyl-4-morpholinyl]-5-(2-methyl-4-pyridinyl)-4-thiazolyl]methyl]-cyclopropaneacetamide], the “PAM_Type PAM type” value [1] is reported as 2, the melting point is reported as 177 °C and the Emax (human alpha 7-wt nAChR; [2]) is reported as 736%. For the same molecule, the EC50 (human alpha 7-wt nAChR) was 0.562 µM.
With Cc1cc(-c2sc(N3C[C@@H](C)O[C@@H](C)C3)nc2CNC(=O)c2ccccc2Cl)ccn1 [Compound 90, 2-chloro-N-[[2-[(2R,6S)-2,6-dimethyl-4-morpholinyl]-5-(2-methyl-4-pyridinyl)-4-thiazolyl]methyl]-benzamide] the “PAM_Type PAM type” value [1] was 2, the melting point was 155 °C and the Emax (human alpha 7-wt nAChR; [2]) was 491%. It also gave an EC50 (human alpha 7-wt nAChR) of 0.49 µM.
With Cc1ccc(-c2sc(N3C[C@@H](C)O[C@@H](C)C3)nc2CNC(=O)c2cc(C)on2)cn1 [Compound 118, N-[[2-[(2R,6S)-2,6-dimethyl-4-morpholinyl]-5-(6-methyl-3-pyridinyl)-4-thiazolyl]methyl]-5-methyl-3-isoxazolecarboxamide] the “PAM_Type PAM type” value [1] was 0, the melting point was 148 °C and the Emax (human alpha 7-wt nAChR; [2]) was 430%. The EC50 (human alpha 7-wt nAChR) was 1.86 µM.
With Cc1cc(-c2sc(N3CCOC(C)(C)C3)nc2CNC(=O)CC2CC2)cc(C)n1 [Compound 156, N-[[2-(2,2-dimethyl-4-morpholinyl)-5-(2,6-dimethyl-4-pyridinyl)-4-thiazolyl]methyl]-cyclopropaneacetamide] the “PAM_Type PAM type” value [1] was 0, the melting point was 135 °C and the EC50 (human alpha 7-wt nAChR) was 1.26 µM.
For Cc1cc(-c2sc(N3CCOC(C)(C)C3)nc2CNC(=O)c2ccc(F)cc2C)cc(C)n1 [Compound 157, N-[[2-(2,2-dimethyl-4-morpholinyl)-5-(2,6-dimethyl-4-pyridinyl)-4-thiazolyl]methyl]-4-fluoro-2-methyl-benzamide], the “PAM_Type PAM type” value [1] was 2, the melting point was 197 °C and the EC50 (human alpha 7-wt nAChR) was 0.224 µM.
With Cc1cc(-c2sc(N3C[C@@H](C)O[C@@H](C)C3)nc2CNC(=O)c2ncsc2C)cc(C)n1 [Compound 178, N-[[2-[(2R,6S)-2,6-dimethyl-4-morpholinyl]-5-(2,6-dimethyl-4-pyridinyl)-4-thiazolyl]methyl]-5-methyl-4-thiazolecarboxamide] the “PAM_Type PAM type” value [1] was 0, the melting point was 180 °C and the Emax (human alpha 7-wt nAChR; [2]) was 733%. It also gave an EC50 (human alpha 7-wt nAChR) of 0.501 µM.
In the case of Cc1cc(-c2sc(N3CCOC(C(F)(F)F)C3)nc2CNC(=O)CC2CC2)cc(C)n1 (stereo not shown) [Compound 190, N-[[5-(2,6-dimethyl-4-pyridinyl)-2-[2-(trifluoromethyl)-4-morpholinyl]-4-thiazolyl]methyl]-cyclopropaneacetamide], the “PAM_Type PAM type” value [1] is reported as 2, the melting point is reported as 168 °C and the EC50 (human alpha 7-wt nAChR) is reported as 0.0708 µM.

From patent publication US8637510B2, “Morpholinothiazoles as alpha 7 positive allosteric modulators” (Janssen Pharmaceutica NV, priority 2009, dated 2014)
